The numbers were not newly measured in patent US11564963B2, “Topical compositions, process of large-scale manufacture, and method of use” (Progeneron, LLC, priority 2017, dated 2023), which cites them from elsewhere.

In brackets after ≈: the same amount, converted by molar mass.

For series [1] the following is noted: rats.
Series [2] concerns Gram-negative bacteria and fungi.
For series [3] the following is noted: 20° C.

In the case of `OCc1ccccc1` [Benzyl Alcohol], the LD50 in series [1] is 1.2 gm/kg. `[H]/N=C(\N/C(=N/[H])NCCCCCCNC(=N)NC(=N)Nc1ccc(Cl)cc1)Nc1ccc(Cl)cc1` [Chlorhexidine]: in series [2], the “concentrations required for Gram-negative bacteria and fungi” value is 10 to 73 µg/mL. On to `NC(=O)c1cccnc1` [Niacinamide], for which the pKa result is on record as “about 3.35”. The solubility in water in series [3] was 691 mg/mL (≈ 5660 mM).
